Test results as given in patent EP4682141A1, “TRICYCLIC COMPOUND” (ONO Pharmaceutical Co., Ltd., priority 2023, dated 2024).

Experiments:
[1] = system: diabetic renal disease model rat; assay: in vivo drug efficacy in diabetic renal disease model rat (single kidney removal, saline); set-up: species or system SDT.Cg-Leprfa/JttJcl (SDT-fatty rat); details: 8 weeks after the start of administration
Method: A diabetic renal disease model was created by extracting the unilateral kidneys of male SDT.Cg-Leprfa/JttJcl (SDT-fatty/Jcl, CLEA Japan) rats, a type 2 diabetes model, and then giving saline. The in vivo drug efficacy of the present compound on diabetic renal disease was evaluated in this model.
Male SDT.Cg-Leprfa/JttJcl (SDT-fatty rat) aged 4 weeks was purchased from CLEA Japan, and subjected to experiments. The animals were fed ad libitum with Purina5008 (Japan SLC) from the time of arrival, and watered ad libitum. Water was given from the arrival and until 1 week from single kidney removal, and a 0.2 w/v% NaCl solution was given 1 week after single kidney removal.
After acclimation breeding, the body weight was measured, and buprenorphine was subcutaneously administered at a dose of 0.01 mg/kg under inhalation anesthesia with isoflurane (Mayran). After removing hair from the right abdomen of the rat, the right abdomen was disinfected with ethanol and isodine for disinfection and incised to expose the right kidney. The renal artery and vein was ligated with a suture to stop the blood flow, the right kidney was totally removed, and the incision was sutured. The following day, analgesic buprenorphine was administered subcutaneously at a dose of 0.01 mg/kg.
Grouping was performed 3 weeks after single kidney removal. The mice were divided into groups so that the average of the above parameters was almost equal between the groups on the basis of body weight, serum urea nitrogen (BUN), serum creatinine (S-CRE), serum total cholesterol (T-CHO), blood glucose level (GLU), neutral fat (TG), urinary protein (U-TP), urinary albumin (U-ALB), and creatinine clearance (CCr).
All of the compounds of Examples 25-7, 10, 11 and 12 were orally administered once a day for 8 weeks in combination with losartan (30 mg/kg), a renin angiotensin system inhibitor, and canagliflozin (10 mg/kg), a glucose co-transporter inhibitor. The compounds of Examples 25-7, 10, 11 and 12, and losartan were each dissolved in water for injection (Otsuka Pharmaceutical), and canagliflozin was suspended in a 0.5% methyl cellulose solution (Fujifilm Wako Pure Chemical Corporation) to prepare an administration solution. In the Control-1 group, water for injection which is a vehicle of losartan or the compound of Examples 25-7, 10, 11 or 12 was orally administered at 5 mL/kg, and a 0.5% methylcellulose solution which is a vehicle of canagliflozin was orally administered at 2.5 mL/kg once a day for 8 weeks. In the Control-2 group, losartan (30 mg/kg) dissolved in water for injection was orally administered at an administration volume of 2.5 mL/kg, canagliflozin (10 mg/kg) suspended in a 0.5% methyl cellulose solution was orally administered at an administration volume of 2.5 mL/kg, and water for injection which is a vehicle of the compounds of Examples 25-7, 10, 11 and 12 was orally administered at an administration volume of 2.5 mL/kg once a day for 8 weeks. The administration dose is described in Table 8.
Blood was collected by puncturing the tail vein of the rat with an injection needle. Blood was collected in a tube for serum separation (BD Microtainer) and centrifuged to obtain serum. Urine was collected for 24 hours in a metabolic cage for rat under conditions in which a solid feed and water can be freely taken. The obtained urine sample was centrifuged, and the supernatant was subjected to measurement. The concentrations of BUN, S-CRE, T-CHO, TG, U-ALB, U-TP, GLU and U-CRE were measured by an automatic analyzer Hitachi 7180 (Hitachi High-Tech).

diabetes model rat = assay: inhibitory effect on the amount of albumin excreted in urine in diabetes model rat; assay type: in vivo, SDT Fatty rats; details: urine collected for 24 hours, urine albumin/urine creatinine ratio
Method: Male SDT Fatty rats aged 6 weeks (CLEA Japan) were purchased and preliminarily bred for 1 week or more. Experiments were performed at 8 to 16 weeks of age. The animals were fed ad libitum with solid feed CRF-1 (Oriental Yeast) and watered ad libitum.
Animals were housed in metabolic cages 2 days before test substance administration, and urine was collected for 24 hours. On the day before administration of the test substance, urine albumin and urine creatinine were measured, and grouping was performed by a stratification randomization method based on the urine albumin/urine creatinine ratio (ACR) and the average value of body weights for each group.
The compounds (test substances) of Examples 9-5, 10, 11, 12, 25-7 and 32, and water for injection (Otsuka Pharmaceutical) as a vehicle were orally administered once at 5 mL/kg. The administration dose is described in Table 3.
For evaluation of the amount of albumin excreted in urine of each animal, a urine albumin/urine creatinine ratio (ACR) was measured. After administration of the test substance, the animals were housed in metabolic cages, and urine was collected for 24 hours. Each concentration of urine albumin and urine creatinine was measured using an automatic analyzer 7180 (Hitachi High-Tech), and ACR was calculated by dividing the urine albumin concentration by the urine creatinine concentration.

EP1 = target: T1, EP1 (Homo sapiens, UniProt P34995); assay: agonist activity on human EP1 receptor (intracellular calcium concentration, EP1-CHO cells); assay type: cell-based
T1 construct: expressed in transfected cells; host or cells: CHO (EP1-CHO)
T1 sequence (P34995 1-402): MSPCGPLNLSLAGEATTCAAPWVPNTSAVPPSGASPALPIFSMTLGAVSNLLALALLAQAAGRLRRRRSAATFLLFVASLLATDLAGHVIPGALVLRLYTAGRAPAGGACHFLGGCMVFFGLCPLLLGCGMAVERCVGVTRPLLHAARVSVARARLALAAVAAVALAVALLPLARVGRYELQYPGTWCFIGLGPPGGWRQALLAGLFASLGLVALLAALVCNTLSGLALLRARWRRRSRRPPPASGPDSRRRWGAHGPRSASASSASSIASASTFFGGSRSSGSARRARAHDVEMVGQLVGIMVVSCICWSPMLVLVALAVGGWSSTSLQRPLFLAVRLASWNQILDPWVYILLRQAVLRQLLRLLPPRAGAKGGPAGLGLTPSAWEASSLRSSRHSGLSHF
Method: (§1) Using CHO cells (EP1-CHO, EP2-CHO, EP3-Chem1, EP4-CHO and IP-CHO) on which various human prostanoid receptors were forcibly expressed, the agonist activity of the test compound on the various prostanoid receptors was examined using the intracellular calcium concentration for EP1 and EP3, and the intracellular cyclic AMP (hereinafter, abbreviated as cAMP) production amount for EP2, EP4 and IP as indices.
(§2) The test compound and control substances (PGE2 and iloprost) were dissolved in dimethyl sulfoxide (DMSO) to prepare a 10 mmol/L solution. The prepared 10 mmol/L solution was thawed at the time of use, serially diluted using DMSO, and diluted with a buffer solution 1 for measurement (Hank's balanced salt solution (Thermofischer scientific) containing 1 w/v% human serum albumin (Sigma), 2 µmol/L indomethacin (Sigma), 2.5 mmol/L probenecid, and 10 mmol/L HEPES-NaOH (pH7.4)) or a buffer solution 2 for measurement (D-PBS (Nacalai Tesque) containing 0.1 w/v% human serum albumin, 2 µmol/L diclofenac (Sigma), and 1 mmol/L 3-isobutyl-1-methylxanthine (Sigma)) to perform experiments.
The intracellular calcium concentration was measured using Calcium 6 Assay Kit (Molecular Devices). On the day before the measurement, EP1-CHO and EP3-Chem 1 were obtained by thawing the frozen cells, suspended using Ham's F-12 medium (Thermofischer scientific) containing inactivated (56°C, 30 min) 9.8 vol% FBS (Thermofischer scientific) and penicillin-streptomycin (Nacalai Tesque), seeded into a 96 well UV plate to 1.0×10^5 cells per well, and static cultured at 37°C in the presence of 5%CO2. On the day of the measurement, the medium was removed, followed by addition of 120 µL of the Calcium indication solution dissolved in the buffer solution 1 for measurement and incubation at room temperature under light-shielding for about 1 hour. After 1 hour incubation, the 96 well UV plates were set in a fluorescence spectrophotometer (FDSS-7000, Hamamatsu Photonics) to measure the intracellular calcium concentration. Thirty microliters of the buffer solution 1 for measurement containing various concentrations of agonists were added, and the mixture was reacted. The intracellular calcium concentration was measured by irradiating the cells with 480 nm excitation light and measuring the fluorescence intensity at 540 nm.

[2] = system: rat 5/6 kidney-removed model; assay: in vivo drug efficacy on renal damage in rat 5/6 kidney-removed model; set-up: species or system Jcl: Wistar (Wistar) rats; details: after 8 weeks from the start of administration
Text: The obtained urine sample was centrifuged, and the supernatant was subjected to measurement.

EP2 = target: T2, EP2 (Homo sapiens, UniProt P43116); assay: agonist activity on human EP2 receptor (cAMP production, EP2-CHO cells); assay type: cell-based
T2 construct: expressed in transfected cells; host or cells: CHO (EP2-CHO)
T2 sequence (P43116 whole entry): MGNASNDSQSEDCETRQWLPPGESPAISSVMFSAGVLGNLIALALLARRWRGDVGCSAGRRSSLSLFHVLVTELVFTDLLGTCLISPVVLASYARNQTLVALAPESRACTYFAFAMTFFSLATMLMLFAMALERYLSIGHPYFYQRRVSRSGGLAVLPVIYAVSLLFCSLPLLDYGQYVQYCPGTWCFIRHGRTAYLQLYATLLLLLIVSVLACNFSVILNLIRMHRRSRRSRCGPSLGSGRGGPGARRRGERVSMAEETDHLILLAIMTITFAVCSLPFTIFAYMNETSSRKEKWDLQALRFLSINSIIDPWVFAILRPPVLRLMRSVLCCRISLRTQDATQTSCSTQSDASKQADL
Method: as §1
(§3) The test compound and control substances (PGE2 and iloprost) were dissolved in dimethyl sulfoxide (DMSO) to prepare a 10 mmol/L solution. […]
(§4) On the day of the measurement, EP2-CHO, EP4-CHO, and IP-CHO were obtained by thawing frozen cells. […] The cAMP concentration was measured using a cAMP HTRF HiRange kit (CIS bio International). […] After incubation for 1 hour, time-resolved fluorescence at 620 nm and 660 nm when excited at 340 nm was measured using Synergy Neo (Bioteck), and the ratio (TRF ratio) was determined to calculate the cAMP concentration from the calibration curve.

IP = target: T3, IP (Homo sapiens, UniProt P43119); assay: agonist activity on human IP receptor (cAMP production, IP-CHO cells); assay type: cell-based
T3 construct: expressed in transfected cells; host or cells: CHO (IP-CHO)
T3 sequence (P43119 whole entry): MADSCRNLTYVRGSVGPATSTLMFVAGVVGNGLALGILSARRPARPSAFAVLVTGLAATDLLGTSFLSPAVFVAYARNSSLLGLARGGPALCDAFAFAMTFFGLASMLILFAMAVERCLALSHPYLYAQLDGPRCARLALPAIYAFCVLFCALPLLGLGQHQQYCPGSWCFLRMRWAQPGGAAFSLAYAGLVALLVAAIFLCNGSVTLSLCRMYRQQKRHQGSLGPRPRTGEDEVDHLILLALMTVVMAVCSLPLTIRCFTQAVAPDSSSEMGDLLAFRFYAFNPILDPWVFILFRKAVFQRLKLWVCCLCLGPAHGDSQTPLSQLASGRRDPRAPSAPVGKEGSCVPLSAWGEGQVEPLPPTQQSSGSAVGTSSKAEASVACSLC
Method: as §1, §3, §4

EP4 = target: T4, EP4 (Homo sapiens, UniProt P35408); assay: agonist activity on human EP4 receptor (cAMP production, EP4-CHO cells); assay type: cell-based
T4 construct: expressed in transfected cells; host or cells: CHO (EP4-CHO)
T4 sequence (P35408 whole entry): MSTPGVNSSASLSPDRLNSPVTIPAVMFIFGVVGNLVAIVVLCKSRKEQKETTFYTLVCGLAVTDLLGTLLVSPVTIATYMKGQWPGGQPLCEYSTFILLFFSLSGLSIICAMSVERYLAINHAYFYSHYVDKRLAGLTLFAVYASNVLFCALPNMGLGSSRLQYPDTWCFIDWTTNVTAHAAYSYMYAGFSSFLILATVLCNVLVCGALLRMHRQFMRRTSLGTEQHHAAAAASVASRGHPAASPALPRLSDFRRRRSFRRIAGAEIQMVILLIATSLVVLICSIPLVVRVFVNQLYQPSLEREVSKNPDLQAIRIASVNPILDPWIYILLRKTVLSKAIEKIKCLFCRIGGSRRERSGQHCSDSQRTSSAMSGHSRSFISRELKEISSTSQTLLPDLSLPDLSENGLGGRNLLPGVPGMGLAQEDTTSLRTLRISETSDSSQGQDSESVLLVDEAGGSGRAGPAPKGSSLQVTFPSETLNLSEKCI
Method: as §1, §3, §4

EP3 receptor = target: T5, EP3 receptor (Homo sapiens, UniProt P43115); assay: agonist activity on human EP3 receptor (intracellular calcium concentration, EP3-Chem1 cells); assay type: cell-based; details: agonist activity on the EP3 receptor
T5 construct: expressed in transfected cells; host or cells: EP3-Chem1
T5 sequence (P43115 1-390): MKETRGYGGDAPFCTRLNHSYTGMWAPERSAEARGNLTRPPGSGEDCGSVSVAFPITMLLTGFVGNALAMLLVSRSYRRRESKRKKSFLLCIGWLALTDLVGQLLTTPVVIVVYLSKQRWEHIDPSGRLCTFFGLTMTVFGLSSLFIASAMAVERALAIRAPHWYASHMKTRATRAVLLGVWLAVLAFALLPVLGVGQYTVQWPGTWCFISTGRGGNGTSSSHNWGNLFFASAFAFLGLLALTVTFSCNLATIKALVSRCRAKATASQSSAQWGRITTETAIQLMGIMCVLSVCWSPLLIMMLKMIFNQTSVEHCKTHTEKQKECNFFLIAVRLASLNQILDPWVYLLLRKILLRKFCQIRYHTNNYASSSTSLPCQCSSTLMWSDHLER
Method: as §1, §2

Compound	Serum creatinine mean ([1]; 0.1 mg/kg orally once a day for 8 weeks in combination with losartan (30 mg/kg) and canagliflozin (10 mg/kg))	ACR mean (diabetes model rat; 0.01 mg/kg orally once)	ACR mean (diabetes model rat; 0.1 mg/kg orally once)	EC50 (EP1)	Amount of albumin excreted in urine mean ([2]; 0.1 mg/kg orally once a day for 8 weeks)	Serum creatinine mean ([1]; 0.01 mg/kg orally once a day for 8 weeks in combination with losartan (30 mg/kg) and canagliflozin (10 mg/kg))	Serum creatinine mean ([1]; 0.03 mg/kg orally once a day for 8 weeks in combination with losartan (30 mg/kg) and canagliflozin (10 mg/kg))	ACR mean (diabetes model rat; 0.03 mg/kg orally once)	Amount of albumin excreted in urine mean ([2]; 0.01 mg/kg orally once a day for 8 weeks)	Amount of albumin excreted in urine mean ([2]; 0.03 mg/kg orally once a day for 8 weeks)	EC50 (EP2)	EC50 (IP)	EC50 (EP4)	EC50 (EP3 receptor)
CCC(CCC(C)C)C(O)/C=C/[C@@H]1[C@H]2CCc3ccc(C(=O)O)c(C)c3O[C@H]2C[C@H]1O (stereo partly drawn) [Example 10, (1R,2R,3aS,10aR)-1-[(1E,3ξ,4ξ)-4-ethyl-3-hydroxy-7-methyl-1-octen-1-yl]-2-hydroxy-5-methyl-2,3,3a,9,10,10a-hexahydro-1H-benzo[b]cyclopenta[f]oxepine-6-carboxylic acid]	0.50 mg/dL	909.3 µg/mg	751.6 µg/mg	> 10 µM	35.47 mg/24 h	–	–	–	–	–	–	–	–	–
Cc1c(C(=O)O)ccc2c1O[C@H]1C[C@@H](O)[C@H](/C=C/C[C@@](C)(O)CCC(F)=C(F)F)[C@H]1CC2 [Example 11, (1R,2R,3aS,10aR)-2-hydroxy-5-methyl-1-[(1E,45)-7,8,8-trifluoro-4-hydroxy-4-methyl-1,7-octadien-1-yl]-2,3,3a,9,10,10a-hexahydro-1H-benzo[b]cyclopenta[f]oxepine-6-carboxylic acid]	–	1010.5 µg/mg	–	> 10 µM	–	0.46 mg/dL	0.47 mg/dL	575.3 µg/mg	46.01 mg/24 h	37.94 mg/24 h	–	–	–	–
(1R,2R,3aS,10aR)-2,5-difluoro-1-[(1E,3ξ)-3-hydroxy-4-methyl-4-phenyl-1-penten-yl]-2,3,3a,9,10,10a-hexahydro-1H-benzo[b]cyclopenta[f]oxepine-6-carboxylic acid [Example 28]	–	–	–	> 10 µM	–	–	–	–	–	–	> 10 µM	> 10 µM	1.1 µM	0.03 µM
